Laboratory results published in the NIST ThermoML archive (doi:10.1021/je800122x).
± gives the expanded uncertainty stated by the source.

Columns and labels:
[1] = refractive index (Na D-line) (dimensionless); settings: 293.1 K; 101.33 kPa; Liquid; Standard Abbe refractometry
[2] = Liquid

SMILES | refractive index [1] | vapor or sublimation pressure ([2]; 293.15 K) | vapor or sublimation pressure ([2]; 303.15 K) | vapor or sublimation pressure ([2]; 313.15 K) | vapor or sublimation pressure ([2]; 323.15 K) | vapor or sublimation pressure ([2]; 333.15 K) | vapor or sublimation pressure ([2]; 343.15 K) | vapor or sublimation pressure ([2]; 353.15 K) | vapor or sublimation pressure ([2]; 363.15 K) | vapor or sublimation pressure ([2]; 369.15 K) | vapor or sublimation pressure ([2]; 323.1 K) | vapor or sublimation pressure ([2]; 333.05 K) | vapor or sublimation pressure ([2]; 343 K) | vapor or sublimation pressure ([2]; 352.9 K) | vapor or sublimation pressure ([2]; 358.15 K) | vapor or sublimation pressure ([2]; 358.45 K) | vapor or sublimation pressure ([2]; 361.15 K) | vapor or sublimation pressure ([2]; 364.15 K) | vapor or sublimation pressure ([2]; 367.15 K)
CC(Cl)CCl (stereo not drawn) [1,2-dichloropropane] | 1.4383 ± 0.0007 |  |  |  |  |  |  |  |  |  |  |  |  |  |  |  |  |  | 
CC(O)CCl (stereo not drawn) [1-chloro-2-propanol] | 1.4377 ± 0.0007 | 1.199 ± 0.99 kPa | 2.225 ± 1.1 kPa | 3.981 ± 1.3 kPa | 6.662 ± 1.7 kPa | 10.88 ± 2.4 kPa | 17.2 ± 3.3 kPa | 26.48 ± 4.7 kPa | 39.8 ± 6.7 kPa | 50.1 ± 8.2 kPa |  |  |  |  |  |  |  |  | 
CC(C)(Cl)OC(C)(C)Cl [propane, 2,2'-oxybis[2-chloro-] | 1.4473 ± 0.0007 |  | 0.24 ± 0.18 kPa | 0.564 ± 0.34 kPa |  |  |  |  |  |  | 0.867 ± 0.49 kPa | 1.28 ± 0.7 kPa | 1.919 ± 0.69 kPa | 2.822 ± 0.78 kPa | 3.673 ± 0.87 kPa | 3.348 ± 0.83 kPa | 4.237 ± 0.92 kPa | 4.806 ± 0.97 kPa | 5.477 ± 1 kPa
